The target of one test is NEP (Homo sapiens, UniProt P08473). Kind of test: Neprilysin inhibition assay (degradation of 1 after preincubation with peptide). In kind it is biochemical. More on the design: purchased Sino Biological. As to conditions: preincubation of NEP with equimolar peptide. How it is done: This experiment investigates the ability of synthetic peptides 8-19 to inhibit the inherent proteolytic activity of NEP.
Assays were performed in duplicate (n=2) for each time point.

The subject of the next test is Ldlr^−/− mice. Kind of test: Angiotensin II-induced abdominal aortic aneurysm. In kind it is in vivo. How it is done: Experimental Animals and Protocols. Male LDL receptor deficient (Ldlr^−/−) mice were generated and bred in C57BL/6 background. All animal experiments were carried out in accordance with the Canadian Council on Animal Care Guidelines, and animal protocols were reviewed and approved by the Animal Care and Use Committee at the University of Alberta.
Alzet micro-osmotic pump (model 1002 or 1004; Durect Co.) was implanted subcutaneously at the dorsum of the neck to infuse Ang II (1.5 mg/kg^−1d^−1) or vehicle (saline) for 28 days in high fat fed Ldlr^−/− mice.
After 4 weeks of Ang II or saline infusion, mice underwent whole body perfuse-fixation, via the left ventricle, with 10% buffered formalin (80 mmHg, 20 min). […] Collagen positive area was quantified by the morphometric analysis using the Metamorph Basic (version 7.7.0.0) software. In situ DNA fragmentation was detected in 5-μm thick FFPE sections of aorta using the commercially available terminal deoxynucleotidyl transferase-mediated dUTP nick-end labeling (TUNEL) assay kit according to manufacturer's instructions (Invitrogen) as previously described. […] Thickness of the medial layer of the aorta was measured in calibrated images as the mean distance between the external elastin lamella and the internal elastin lamella from 8 randomly selected fields of the cross-section of an aorta using the Metamorph Basic software (version 7.7.0). […]

From patent publication US10640545B2 (THE GOVERNORS OF THE UNIVERSITY OF ALBERTA, priority 2017, dated 2020) come the findings set out here.

Where a SMILES comes first, the peptide text is derived from it. [ ]: non-standard residue; d: D form. Phe(4-Br) = N[C@@H](Cc1ccc(Br)cc1)C(=O)O; NMeL = CN[C@@H](CC(C)C)C(=O)O; Nle = CCCC[C@H](N)C(=O)O; Aib = CC(C)(N)C(=O)O

Chain of NEP (P08473 whole entry): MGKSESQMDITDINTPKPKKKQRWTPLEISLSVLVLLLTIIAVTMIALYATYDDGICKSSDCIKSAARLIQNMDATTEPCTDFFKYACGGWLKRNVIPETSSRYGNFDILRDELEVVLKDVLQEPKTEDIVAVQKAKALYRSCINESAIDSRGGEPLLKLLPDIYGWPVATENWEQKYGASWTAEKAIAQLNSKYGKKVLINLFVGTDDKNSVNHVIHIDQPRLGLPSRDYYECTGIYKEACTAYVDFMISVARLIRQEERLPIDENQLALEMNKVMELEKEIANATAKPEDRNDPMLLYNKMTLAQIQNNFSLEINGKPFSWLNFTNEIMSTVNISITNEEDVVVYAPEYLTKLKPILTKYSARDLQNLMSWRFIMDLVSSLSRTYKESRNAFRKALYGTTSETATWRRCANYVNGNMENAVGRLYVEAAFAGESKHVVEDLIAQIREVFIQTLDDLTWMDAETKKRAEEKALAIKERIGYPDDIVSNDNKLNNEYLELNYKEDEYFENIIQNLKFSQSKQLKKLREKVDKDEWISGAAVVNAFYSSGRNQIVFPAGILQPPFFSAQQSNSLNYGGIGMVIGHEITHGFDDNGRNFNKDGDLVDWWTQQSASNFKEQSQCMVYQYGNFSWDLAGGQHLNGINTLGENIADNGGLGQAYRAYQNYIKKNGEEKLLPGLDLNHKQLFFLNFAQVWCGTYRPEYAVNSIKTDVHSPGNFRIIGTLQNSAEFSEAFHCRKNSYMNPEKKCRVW

On to `CCCC[C@H](NC(=O)[C@@H]1CCCN1C(=O)CNC(=O)[C@H](CCCCN)NC(=O)[C@H](Cc1c[nH]cn1)NC(=O)[C@H](CO)NC(=O)[C@H](CC(C)C)N(C)C(=O)[C@H](CCCNC(=N)N)NC(=O)[C@@H]1CCCN1C(=O)[C@H](CCCNC(=N)N)NC(=O)[C@H](CCC(N)=O)NC(=O)[C@H](CCCNC(=N)N)NC(=O)[C@H](CCCNC(=N)N)NC(=O)[C@H](Cc1ccccc1)NC(=O)[C@@H](N)CCCCN)C(=O)NC(C)(C)C(=O)N[C@@H](Cc1ccc(Br)cc1)C(=O)O` [Peptide 11] (H-KFRRQRPR[NMeL]SHKGP[Nle][Aib][Phe(4-Br)]-OH; C-terminus assumed), for which the “inhibition of the proteolytic activity of NEP” value at NEP is “no ability to inhibit the inherent activity of NEP”. Moreover, the “oxidative stress (DHE fluorescence and NADPH oxidase activity)” value in the test on Ldlr^−/− mice (aorta of Ldlr^−/− mice, Ang II + peptide) is reported as “suppression of oxidative stress”. Moreover, the “formation of abdominal aortic aneurysm” value with Ldlr^−/− mice (high fat fed Ldlr^−/− mice, Ang II 1.5 mg/kg/d 28 days, peptide 3 mg/kg/d intraperitoneal 28 days) was “markedly prevented the formation of abdominal aortic aneurysm”.
